Results reported in ChEMBL document CHEMBL5335856, “Structurally Diverse Alkaloids with Anti-Renal-Fibrosis Activity from the Centipede Scolopendra subspinipes mutilans” (J Nat Prod, 2024).
Active and inactive are the calls of the source.

Columns and labels:
Format in all cases: functional, cell-based
RAW264.7 [1] = assay: Antiinflammatory activity against LPS-induced mouse RAW264.7 cells assessed as reduction in iNOS protein level at 20 uM
RAW264.7 [2] = assay: Antiinflammatory activity against LPS-induced mouse RAW264.7 cells assessed as reduction in COX-2 protein level at 20 uM
NRK-52E [3] = assay: Anti-renal-fibrosis activity in TGF-beta1 induced rat NRK-52E cells assessed as downregulation of collagen I protein level at 20 uM by Western blot analysis
NRK-52E [4] = assay: Anti-renal-fibrosis activity in TGF-beta1 induced rat NRK-52E cells assessed as downregulation of fibronectin protein level at 20 uM by Western blot analysis
NRK-52E [5] = assay: Anti-renal-fibrosis activity in TGF-beta1 induced rat NRK-52E cells assessed as downregulation of alpha-SMA protein level at 20 uM by Western blot analysis

Measured: Activity

COc1c(O)cnc2c(O)cccc12
active: RAW264.7 [1] | RAW264.7 [2]

COc1cc(=O)n(C)c2c(O)cccc12
active: RAW264.7 [1] | RAW264.7 [2] | NRK-52E [3] | NRK-52E [4] | NRK-52E [5]

COc1cc(=O)[nH]c2c(OC)cccc12
active: RAW264.7 [1] | RAW264.7 [2] | NRK-52E [3] | NRK-52E [4] | NRK-52E [5]

COc1c(O)c(=O)n(C)c2c(O)cccc12
active: RAW264.7 [1] | RAW264.7 [2] | NRK-52E [3] | NRK-52E [4] | NRK-52E [5]

Oc1cnc2c(O)cccc2c1
active: RAW264.7 [1] | RAW264.7 [2]

N=C(N)N1CCC[C@H]1c1ccc2cc(O)cnc2c1O
active: RAW264.7 [1] | RAW264.7 [2]
